Results taken from publication PMC9101087, “A Sensitive LC-MS/MS Method for the Simultaneous Determination of Two Thia-Analogous Indirubin N-Glycosides and Indirubin-3′-Monoxime in Plasma and Cell Culture Medium” (Molecules, 2022).

What was measured:
A375 (melanoma) = assay: WST-1 cell viability assay, 48-h incubation; format: cell-based, human; details: A375, WST-1, 48 h, vs. vehicle; even at 3 µM in some (unnamed) cell lines
Protocol: (§1) To test the biological activity of the thia-analogous indirubin N-glycosides that are the focus of the present work, the effects of KD87 and KD85 and their non-glycosylated parent compound KD88 on the viability of various tumor cell lines were initially investigated. The corresponding analyses were performed using the cell lines A375 (melanoma), A431 (skin squamous cell carcinoma), A549 (non-small cell lung carcinoma), U251MG (glioblastoma), and U138MG (glioblastoma).
(§2) Figure 2 Effect of increasing concentrations of KD87 (A), KD85 (B), and KD88 (C) on viability of various cancer cells. A375 (melanoma; black columns), A431 (skin squamous cell carcinoma; dark grey columns), A549 (non-small cell lung carcinoma; grey columns), U251MG (glioblastoma; light grey columns), or U138MG (glioblastoma; white columns) were incubated for 48 h with the appropriate compounds or vehicle followed by determination of cell viability by WST-1 assay. Percent control represents comparison with vehicle-treated cells (100%) in the absence of test substance. Values are mean ± standard error of the mean (SEM) of n = 15 in all panels, except n = 14 for A375 and A431 cells in panel B and n = 14–15 for A375 cells in panel C, from four (A375, A431) or five (A549, U251MG, U138MG) independent experiments. * p ≤ 0.05, ** p ≤ 0.01, *** p ≤ 0.001, **** p ≤ 0.0001 vs. vehicle control; one-way ANOVA with Dunnett’s post hoc test.
(§3) The human melanoma cell line A375 (#300110; RRID:CVCL_0132) as well as the human skin epidermoid carcinoma cell line A431 (#300112; RRID:CVCL_0037) were purchased from CLS Cell Lines Service GmbH (Eppelheim, Germany). The human glioblastoma cell line U251MG (#09063001; RRID:CVCL_0021) was from Sigma-Aldrich Corporation. The human glioblastoma cell line U138MG (#ACC 291; RRID: CVCL_0020) and the human lung carcinoma cell line A549 (#ACC 107, RRID:CVCL_0023) were purchased from DSMZ (Deutsche Sammlung von Mikroorganismen und Zellkulturen GmbH, Braunschweig, Germany).
(§4) Cells were cultured in high-glucose DMEM (with GlutaMAX™-I: A375, A431; with UltraGlutamine^TM I: A549, U251MG, U138MG) supplemented with 10% heat-inactivated FBS, 100 U/mL penicillin, and 100 μg/mL streptomycin and grown in a humidified incubator at 37 °C and 5% CO2. For viability analyses, cells were seeded in 96-well plates at a density of 5000 cells per well in DMEM containing 10% heat-inactivated FBS and cultured for 24 h. All cell experiments with the specific substances were performed in serum-free DMEM supplemented with 100 U/mL penicillin and 100 μg/mL streptomycin, applied after washing the cells with DPBS. The test substances were dissolved in DMSO. The final concentration of DMSO in the incubation media of test substance- and vehicle-treated cells was 1% (v/v).
(§5) After completion of the 48-h incubation, WST-1 reagent (Sigma, Taufkirchen, Germany) was added to the cells to achieve a final dilution of 1:10, and the cells were incubated for an additional 20 min before absorbance was measured at 450 nm, reference wavelength […], using a microplate reader.

[1] = test system: A431 (skin squamous cell carcinoma); assay: WST-1 cell viability assay, 48-h incubation; format: cell-based, human; details: A431, WST-1, 48 h, vs. vehicle; even at 3 µM in some (unnamed) cell lines
Protocol: as §1, §2, §3, §4, §5

[2] = test system: A549 (non-small cell lung carcinoma); assay: WST-1 cell viability assay, 48-h incubation; format: cell-based, human; details: A549, WST-1, 48 h, vs. vehicle; even at 3 µM in some (unnamed) cell lines
Protocol: as §1, §2, §3, §4, §5

U138MG (glioblastoma) = assay: WST-1 cell viability assay, 48-h incubation; format: cell-based, human; details: WST-1, 48 h, vs. vehicle, even at 3 µM in some (unnamed) cell lines
Protocol: as §1, §2, §3, §4, §5

U251MG (glioblastoma) = assay: WST-1 cell viability assay, 48-h incubation; format: cell-based, human; details: WST-1, 48 h, vs. vehicle, even at 3 µM in some (unnamed) cell lines
Protocol: as §1, §2, §3, §4, §5

[3] = Storage stability in human plasma, LC-MS/MS after plasma extraction; format: in vitro ADME; details: for Stability 4 °C / Stability AS (autosampler) / Stability −20 °C / Stability BT (benchtop): 24 h; for Stability FT (freeze-thaw): freeze-thaw cycles; for Stability −80 °C 90 d: long-term freezing; for Stability BT (benchtop): room temperature
Protocol: To assess stability, low and high concentrations of all analytes were subjected to different storage conditions. […] For determination of long-term stability, samples were stored in either plasma or DMEM at –80 °C for 90 and 91 days, respectively. To measure short-term stability, samples were stored at room temperature, in an autosampler, at 4 °C, and at –20 °C for 24 h. In addition, freeze-thaw cycles were performed according to FDA guidance for the standard solutions. For comparison, at least three freshly prepared samples were prepared for each concentration level. With the exception of autosampler stability, the internal standard was always added to all samples before sample processing was started.
Liquid-liquid extraction was performed identically for plasma and DMEM samples. After addition of the 1.0 µM internal standard, 50 µL of 0.8 M alkaline carbonate buffer was added. The extraction was performed once with 890 µL ethyl acetate. Tubes were then shaken for 10 min at 1400 rpm using a Thermomixer 5436 (Eppendorf AG, Hamburg, Germany) followed by centrifugation for 5 min at 14,000 rpm using a Centrifuge 5415 C (Eppendorf AG, Hamburg, Germany). Subsequently, 850 µL of the supernatant was transferred to a new tube and evaporated to dryness for 35 min at 35 °C (8 min heating time) using a SpeedVac SPD130DLX (Thermo Fisher Scientific, Asheville, NC, USA). Reconstitution was performed with 200 µL of a acetonitrile/water/H2SO4 [3/0.5/0.5] mixture, shaken at 1400 rpm for 5 min, and centrifuged again at 14,000 rpm for 5 min. Finally, 155 µL of the sample was transferred to an LC vial and analyzed.
To assess stability, low and high concentrations of all analytes were exposed to different storage conditions. To determine long-term stability, samples were stored in either plasma or DMEM at −80 °C for 90 and 91 days, respectively. To determine short-term stability, samples were stored for 24 h on the bench at room temperature, in the autosampler, at 4 °C, and at −20 °C. In addition, freeze-thaw cycles were performed for the standard solutions according to FDA guidance. At least three freshly prepared samples per concentration level were prepared for comparison. With the exception of the stability test in the autosampler, the internal standard was always added to all samples before sample processing was started. However, to avoid concentration fluctuations due to possible degradation of the analytes, stock solutions were prepared twice a week and stored at −20 °C. Each storage condition was examined in the dark. For all conditions studied, n = 3–6 replicates were prepared.

| Structure (SMILES) | concentration from which significant cytotoxic effects start (A375 (melanoma)) [µM] | concentration from which significant cytotoxic effects start [1] [µM] | concentration from which significant cytotoxic effects start [2] [µM] | concentration from which significant cytotoxic effects start (U138MG (glioblastoma)) [µM] | concentration from which significant cytotoxic effects start (U251MG (glioblastoma)) [µM] | Stability 4 °C ([3]; 3.0 nM) [%] | Stability AS (autosampler) ([3]; 3.0 nM) [%] | Stability −20 °C ([3]; 3.0 nM) [%] | Stability FT (freeze-thaw) ([3]; 3.0 nM) [%] | Stability −80 °C 90 d ([3]; 3.0 nM) [%] | Stability BT (benchtop) ([3]; 3.0 nM) [%] | Stability 4 °C ([3]; 250 nM) [%] | Stability AS (autosampler) ([3]; 250 nM) [%] | Stability −20 °C ([3]; 250 nM) [%] | Stability FT (freeze-thaw) ([3]; 250 nM) [%] | Stability −80 °C 90 d ([3]; 250 nM) [%] | Stability BT (benchtop) ([3]; 250 nM) [%] |
| --- | --- | --- | --- | --- | --- | --- | --- | --- | --- | --- | --- | --- | --- | --- | --- | --- | --- |
| O=C1/C(=C2/C(=O)N([C@@H]3O[C@H](CO)[C@@H](O)[C@H](O)[C@H]3O)c3ccccc32)Sc2ccccc21 [KD87, 3-[3′-oxo-benzo[b]thiophen-2′-(Z)-ylidene]-1-(β-D-glucopyranosyl)-oxindole] | ≤ 6 | ≤ 6 | ≤ 6 | ≤ 6 | ≤ 6 | 79.3 ± 2.4 | 80.8 ± 3.0 | 101.4 ± 3.4 | 98.3 ± 5.4 | 100.1 ± 8.4 | 64.4 ± 4.6 | 94.1 ± 5.6 | 73.7 ± 3.3 | 100.1 ± 0.7 | 99.7 ± 2.6 | 100.9 ± 3.6 | 77.8 ± 2.7 |
| O=C1/C(=C2/C(=O)N([C@@H]3O[C@H](CO)[C@@H](O)[C@H](O)[C@@H]3O)c3ccccc32)Sc2ccccc21 [KD85, 3-[3′-oxo-benzo[b]thiophene-2′-(Z)-ylidene]-1-(β-D-mannopyranosyl)-oxindole] | ≤ 6 | ≤ 6 | ≤ 6 | ≤ 6 | ≤ 6 | 85.5 ± 2.2 | 71.8 ± 2.7 | 86.4 ± 3.5 | 99.4 ± 4.0 | 102.5 ± 5.2 | 64.4 ± 3.6 | 94.3 ± 5.7 | 73.1 ± 2.7 | 101.8 ± 3.2 | 99.1 ± 2.0 | 101.7 ± 1.1 | 76.0 ± 2.6 |
